According to patent US20160082133A1, “CHEMICAL EXCHANGE SATURATION TRANSFER (CEST) BASED MRI USING REPORTER GENES AND SUBSTRATES AND METHODS THEREOF” (The Johns Hopkins University, priority 2013, published 2016):

How the values were obtained:
[1] = Exchange rate estimation by QUEST method; assay type: physicochemical; conditions: pH 7.4, 37° C.; cytosine 2 ppm, 5FC 2.4 ppm
Description: The exchange rate of exchangeable protons with a frequency of 2 ppm for cytosine and 2.4 ppm for 5FC at pH=7.4 was measured using the modified Quantifying Exchange using Saturation Time (QUEST) method (McMahon, M. T. et al. Magn Reson Med 2006, 55, 836). In brief, the CEST contrast for samples containing 20 mM cytosine or 5FC (40 mM of amine protons) at pH 7.4 was measured with saturation delays of 0.5, 1, 1.5, 2, 3, 5, and 9.5 sec, using a saturation field strength of 5.9 μT (300 Hz) and a repetition time (TR) set to 10 sec, using the RARE imaging sequence described above. The calculated MTRasym values were then fit using numerical solutions to the Bloch-McConnel equations with an exchange rate (kex). The water T1w and T2w were experimentally determined as approximately 4 sec and 1.6 sec, respectively, using the saturation recovery spin echo method and the CPMG multi-echo spin echo sequence, respectively. The fixed model parameters were water solute R1s=0.71 Hz and solute R2s=39 Hz.

[2] = target: T1, Escherichia coli CDase (CodA) (Escherichia coli, UniProt P25524); test: Deamination by crude recombinant CDase extracts measured using CEST MRI; assay type: biochemical; conditions: 20 mM substrate, crude CDase extract, 37° C.
T1 construct: 6xHis (C); made in house; host or cells: E. coli BL21 (DE3), crude protein extract
Description: FIGS. 9A-9D show monitoring of recombinant CDase activity using CEST MRI. (FIG. 9A) Western blot using an anti-six-histidine-tag antibody of protein extracts from E. coli engineered to express CD or HSV1-tk (TK). (FIG. 9B) Deamination of cytosine and 5FC (20 mM) by crude CDase extracts measured using CEST MRI at 37° C. and 9.4 T. Conversion was quantified as (1−MTR^tasym/MTR^0asym)×100%, where MTR^tasym/MTR^0asym are the contrasts at time t, and at t=0, respectively. (FIG. 9C, D) maps and statistical analysis (two tailed unpaired students t-test; n=3) of 20 mM (FIG. 9C) cytosine and (FIG. 9D) 5 FC incubated with CDase (0.6 ug crude protein) for 24 hours.
The gene encoding the E. coli Cytosine Deaminase (CDase, CodA) was obtained from the American Type Culture Collection (ATCC Cat. 4099). […] Both genes were sub-cloned into the pEXP5-CT expression vector (Invitrogen) in a reading frame with a C-terminal six-histidine tag under a T7 promoter. […] The recombinant proteins were expressed after induction in Magic Media™ (Invitrogen), and both could be detected with Western blot using an anti-6-histidine tag antibody. […]
Data processing was performed using custom-written scripts in MATLAB (Mathworks, Waltham, Mass.). CEST spectra were calculated from the mean of an ROI placed over each sample after B0 correction of the contrast on a per voxel basis. […]

HEK293FT cells [3] = test: CEST MRI of culture media, CDase activity in HEK293FT cells; assay type: cell-based, Human; conditions: HEK-293FT; 7 mM cytosine or 10 mM 5FC
From the text: (§1) All MR images were acquired with a 9.4T Bruker Avance system equipped with a 15 mm sawtooth RF coil. A modified RARE sequence (TR=6.0 sec, effective TE=43.2 ms, RARE factor=16, slice thickness=0.7 mm, FOV=14×14 mm, matrix size=128×64, resolution=0.11×0.22 mm^2, and NA=2) including a magnetization transfer (MT) module (one CW pulse, B=[…] (150 Hz), 3 sec) was used to acquire CEST-weighted images from −6 ppm to 6 ppm (step=0.2 ppm) around the water resonance (0 ppm). The absolute water resonant frequency shift was measured using a Water Saturation Shift Reference (WASSR) (Kim, M. et al. Magnetic Resonance in Medicine 2009, 61, 1441) method modified (Liu, G. et al. Contrast Media Mol Imaging 2010, 5, 162) with Lorentzian analysis. […]
(§2) Data processing was performed using custom-written scripts in MATLAB (Mathworks, Waltham, Mass.). CEST spectra were calculated from the mean of an ROI placed over each sample after B0 correction of the contrast on a per voxel basis. The CEST signal was quantified using MTRasym at specific offsets of interest (i.e., &ω=+2 ppm for cytosine or +2.4 ppm for 5FC) using the definition: MTRasym=(S^−˜ω−S^+″ω)/S0, where and s[−˜ω, +Aω] is the water signal intensity in the presence of a saturation pulse at offsets ±Aω, and S0 is water signal intensity in the absence of a saturation pulse. […]

9L cells [4] = test: CEST MRI of culture media, CDase activity in 9L cells; assay type: cell-based, Rat; conditions: CDase-expressing 9L cells, 48 h incubation
From the text: as §1, §2

HEK293FT = test: Cell proliferation assay, HEK293FT; assay type: cell-based, Human; conditions: CD-transduced HEK293FT, 10 mM 5FC, 40 hours
Description: (§3) Both wild type- and CD-transduced cells were plated in 96-well cell culture plates to reach a sufficient cell number before 5FC treatment. Then media were replaced with media containing 10 mM 5FC. After 40 hours of incubation, cell viability was determined using a […] assay kit (Invitrogen).

9L cells [5] = test: 19F NMR detection of conversion of 5FC to 5FU, 9L cells; assay type: cell-based, Rat; design: key: (−): no 5FU was detected; conditions: 10 mM 5FC
Description: (§4) For each cell type, the same number of transduced (CD) or non-transduced (wild type, WT) cells were plated into 6-well plates (5.6×10^6 HEK293FT cells, 10^6 9 L cells, and 1.4×10^6 C17.2 cells, respectively). Approximately 6 hours later, fresh culture medium containing 7 mM cytosine or 10 mM 5FC was added to the cells. Fifty microliters of the culture media were collected at different time points up to 24 hours for HEK293FT cells (i.e. 0.5, 4, 6, and 24 hours), and up to 48 hours for the other two cell lines (i.e., 0.5, 4, 6, 24, and 48 hours). These samples were then transferred into capillaries and measured for CEST signal at 2 ppm for cytosine and 2.4 ppm for 5FC.
(§5) Studies were performed using a 500 MHz Bruker NMR spectrometer. ^19F NMR spectra of the enzymatic mixture or aqueous solutions of 10 mM 5FC and 5FU standards (FIG. 30 a and b) were acquired using a single-pulse sequence with a flip angle of 90°, TR=5 sec, and NA=32, carried out at 25° C. with the spectra centered at the resonance frequency of 5FC. NMR data were processed and plotted using Topspin (Bruker, M A). For the cell culture media incubated with 10 mM 5FC for 24 and 48 hours for all three cell types, the ^19F NMR spectrum was measured using the same protocol, except the number of averages was changed to 64 to improve SNR. 5FU peaks were only detected for HEK293FT cells after 24-hour and for 9L cells after 48 hours (FIG. 30 c,d). The complete results of the conversion detected using F NMR are listed in Table 1, as quantified by a conversion rate=peak area(5FU)/(peak area(5FU)+peak area(5FC)).

9L = test: Cell proliferation assay, 9L; assay type: cell-based, Rat; conditions: CD-transduced 9L, 10 mM 5FC, 40 hours
Description: as §3

C17.2 cells = test: 19F NMR detection of conversion of 5FC to 5FU, C17.2 cells; assay type: cell-based, mouse; design: key: (−): no 5FU was detected; conditions: 10 mM 5FC
Description: as §4, §5

HEK293FT cells [6] = test: 19F NMR detection of conversion of 5FC to 5FU, HEK293FT cells; assay type: cell-based, Human; design: key: (−): no 5FU was detected; conditions: 24 hours, 10 mM 5FC
Description: as §4
as §5, with “NMR data were processed and plotted using Topspin (Bruker, M A).” left out, “The complete results of the conversion detected using F NMR are listed in Table 1, as quantified by a conversion rate=peak area(5FU)/(peak area(5FU)+peak area(5FC)).” left out

HSV1-TK = target: T2, HSV1-TK (Human herpesvirus 1, UniProt P0DTH5); test: SPECT/CT imaging of HSV1-TK expression; assay type: in vivo, mice; conditions: 3 h after iv injection
T2 construct: V5; expressed in transfected cells; host or cells: 9L rat glioma cells transfected with pcDNA3.1-HSV1-tk, single G418-selected clone, implanted in NOD-SCID mouse brain
Description: An X-SPECT small-animal SPECT/CT system (Gamma Medica-Ideas) was used for image acquisition as previously described (Nimmagadda et al., J. Nucl. Med. 2009, 50, 1124). Briefly, seven days after cell implantation, the mice were injected iv with 50.3 MBq (1.36 mCi) of ^[125I]FIAU. SPECT data were acquired 3 h after radiotracer injection, and the obtained images were coregistered with the corresponding 512 slice CT images. Fused SPECT/CT transaxial sections of 1 mm thickness were generated using Amira 5.2.0 software (Visage Imaging Inc.) showing the SPECT signal obtained from the brain.

9L^HSV1-tk cells = test: In vitro uptake assay; assay type: cell-based, rat; conditions: 1 and 3 h of incubation, 1 μCi
Description: One million cells (9L^wt and 9L^HSV1-tk in triplicates) were incubated in […] medium containing 1 μCi [^125I]FIAU at 37° C. for 1 and 3 h. Cells were pelleted by centrifugation and washed 3 times with cold PBS. Gamma counter was used to monitor the radioactivity of the incubating medium and the incubated cells. [^125I]FIAU uptake was determined as the relative radioactivity (in percentage) of the cells to that of the incubating [^125I]FIAU medium (without cells).

Dm-dNK = target: T3, Dm-dNK (Drosophila melanogaster, UniProt Q9XZT6); test: Fluorescence of cell lysates after incubation with pyrrolo-dC; assay type: cell-based, rat; conditions: 2 mM, 4 hours
T3 construct: expressed in transfected cells; host or cells: 9L rat glioma cells transfected with a pcDNA vector
Description: (§6) Pyrrolo-dC was dissolved in 10 mM PBS at 20 mM concentration. CEST MRI experiments were performed on an 11.7T Bruker Avance system as previously described (G. Liu et al., Contrast Media Mol Imaging 5, 162 (2010)). A modified RARE (TR/TE=6000/9.4 ms) including a magnetization transfer module (B1=4.7 μT/4000 ms) was used to acquire CEST weighted images. The absolute water resonant frequency shift was measured using a modified WASSR method, with the same parameters as in CEST imaging except TR=1.5 sec and saturation pulse of B1=0.5 μT/250 ms. Mean CEST-spectra were derived from a ROI for each sample, after B0 correction for each voxel using MatLab. MTR asymmetry (MTRasym)=100×(S^−Δω−S^+Δω/S0 was computed at different offsets Δω. 9L rat glioma, engineered to express Drosophila melanogaster 2′-deoxynucleoside kinase (Dm-dNK; 9L^Dm-dNK) and control, non-expressing cells (9L^wt), 5×10^6 cells per group, were incubated for 4 hours at cell-culture medium containing 2 mM pyrrolo-dC. Then, the cells were washed with PBS, lysed and fluorescence was measured in triplicates using a plate reader (lex355 nm/lem460 nm).

[7] = CEST MRI of pyrrolo-dC in PBS; assay type: physicochemical; conditions: 20 mM in PBS, 5.8 ppm, 11.7T
Description: as §6

T3 sequence (Q9XZT6 whole entry): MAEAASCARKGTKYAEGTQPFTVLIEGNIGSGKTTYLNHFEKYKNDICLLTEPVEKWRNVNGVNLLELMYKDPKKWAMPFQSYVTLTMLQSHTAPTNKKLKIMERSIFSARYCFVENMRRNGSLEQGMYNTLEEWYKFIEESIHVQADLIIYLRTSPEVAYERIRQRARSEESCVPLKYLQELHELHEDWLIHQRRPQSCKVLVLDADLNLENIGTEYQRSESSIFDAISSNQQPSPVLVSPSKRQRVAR
T1 sequence (P25524 whole entry): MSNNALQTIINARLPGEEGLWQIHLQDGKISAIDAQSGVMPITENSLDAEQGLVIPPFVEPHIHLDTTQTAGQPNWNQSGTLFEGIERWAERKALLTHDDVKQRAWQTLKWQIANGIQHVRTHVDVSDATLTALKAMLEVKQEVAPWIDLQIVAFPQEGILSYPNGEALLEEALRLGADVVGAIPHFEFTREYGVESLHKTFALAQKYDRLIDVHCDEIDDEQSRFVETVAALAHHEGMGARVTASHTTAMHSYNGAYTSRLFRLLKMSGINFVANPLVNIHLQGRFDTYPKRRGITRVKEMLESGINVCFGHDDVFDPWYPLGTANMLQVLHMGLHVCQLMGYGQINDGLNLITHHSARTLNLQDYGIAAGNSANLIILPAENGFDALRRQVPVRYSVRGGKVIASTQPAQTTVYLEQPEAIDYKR
T2 sequence (P0DTH5 whole entry): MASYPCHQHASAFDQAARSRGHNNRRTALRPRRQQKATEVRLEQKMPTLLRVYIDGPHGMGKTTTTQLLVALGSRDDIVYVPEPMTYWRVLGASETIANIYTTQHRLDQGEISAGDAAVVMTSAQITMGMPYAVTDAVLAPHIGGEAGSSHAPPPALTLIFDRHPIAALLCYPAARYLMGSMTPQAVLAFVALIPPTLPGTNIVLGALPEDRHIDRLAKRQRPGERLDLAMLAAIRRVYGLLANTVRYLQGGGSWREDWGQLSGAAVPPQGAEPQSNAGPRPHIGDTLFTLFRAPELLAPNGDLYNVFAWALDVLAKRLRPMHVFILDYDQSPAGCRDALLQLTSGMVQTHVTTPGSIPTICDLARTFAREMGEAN

Nc1cc[nH]c(=O)n1 [cytosine]
exchange rate (kex) of the amine protons, QUEST [1]: 8.1×10^2 Hz | conversion by recombinant CDase after 24 h [2]: nearly complete | incubation time at which a significant difference in MTRasym between transduced and nontransduced cells was observed (HEK293FT cells [3]): 4 h | relative change in MTRasym (9L cells [4]): 50%

Nc1nc(=O)[nH]cc1F [5FC, 5-fluorocytosine]
number of viable cells after 5FC treatment (HEK293FT): considerable decrease in the number of viable cells | conversion by recombinant CDase after 24 h [2]: not the case | 19F NMR conversion of 5FC to 5FU (9L cells [5]; 9L CD, 24 hours): (−) | 19F NMR conversion of 5FC to 5FU (9L cells [5]; 9L CD, 48 hours): 8.5% | 19F NMR conversion of 5FC to 5FU (9L cells [5]; 9L WT, 24 hours): (−) | 19F NMR conversion of 5FC to 5FU (9L cells [5]; 9L WT, 48 hours): (−) | incubation time at which a significant difference in MTRasym between transduced and nontransduced cells was observed (HEK293FT cells [3]): 24 h | number of viable cells after 5FC treatment (9L): considerable decrease in the number of viable cells | 19F NMR conversion of 5FC to 5FU (C17.2 cells; C17.2 CD, 24 hours): (−) | 19F NMR conversion of 5FC to 5FU (C17.2 cells; C17.2 CD, 48 hours): (−) | 19F NMR conversion of 5FC to 5FU (C17.2 cells; C17.2 WT, 24 hours): (−) | 19F NMR conversion of 5FC to 5FU (C17.2 cells; C17.2 WT, 48 hours): (−) | relative change in MTRasym (9L cells [4]): 12% | 19F NMR conversion of 5FC to 5FU (HEK293FT cells [6]; HEK293FT CD): 38.9% | 19F NMR conversion of 5FC to 5FU (HEK293FT cells [6]; HEK293FT WT): (−)

O=c1[nH]c(=O)n([C@@H]2O[C@H](CO)[C@@H](O)[C@@H]2F)cc1[125I] [[^125I]FIAU]
accumulation in tumors by SPECT/CT (HSV1-TK): only at the ^9LHSV1-tk tumor | uptake in 9L^HSV1-tk cells compared to 9L^wt cells (9L^HSV1-tk cells): significant accumulation

Cc1cc2cn([C@H]3C[C@H](O)[C@@H](CO)O3)c(=O)nc2[nH]1 [pyrrolo-dC, Pyrrolo-2′-deoxycytidine]
fluorescence of lysate of incubated 9L^Dm-dNK cells (Dm-dNK): high fluorescence level | fluorescence of lysate of incubated 9L^wt cells (Dm-dNK): no fluorescence was detected | CEST contrast (MTRasym maps) [7]: high CEST contrast
